Tests used:
[1] = molecular target: T1, human EGF-R (Homo sapiens, UniProt P00533); assay: EGF Receptor ELISA (EGF receptor kinase activity in cells engineered to express human EGF-R); type: cell-based; conditions: NIH 3T3/C7 cell line, EGF stimulated
T1 construct: expressed in transfected cells; host or cells: NIH 3T3/C7 cell line
Experimental: EGF Receptor kinase activity in cells genetically engineered to express human EGF-R can be measured as described below:
Materiala and Reagents. The following materials and reagents are used
a. EGF Ligand: stock concentration=16.5 μM; EGF 201, TOYOBO, Co., Ltd. Japan.
b. 05-101 (UBI) (a monoclonal antibody recognizing an EGFR extracellular domain).
C. Anti-phosphotyosine antibody (anti-Ptyr) (polyclonal).
d. Detection antibody: Goat anti-rabbit lgG horse radish peroxidase conjugate, TAGO, Inc., Burlingame, Calif.
h. Stock reagents of: • EDTA 100 mM pR 7.0 • Na3VO4 0.5 M • Na4(P2O7) 0.2 M
Procedure. The following protocol is used:
1. Coat ELISA plates (Corning, 96 well, Cat. #25805-96) with 05-101 antibody at 0.5 μg per well in PBS, 150 μL final volume/well, and store overnight at 4° C. Coated plates are good for up to 10 days when stored at 4° C.
2. On day of use, remove coating buffer and replace with blocking buffer (5% Carnation Instant NonFat Dry Milk in PBS). Incubate the plate, shaking, at room temperature (about 23° C. to 25° C) for 30 minutes. Just prior to use, remove blocking buffer and wash plate 4 times with TBST buffer.
1. NIH 3T3/C7 cell line (Honegger, et al., Cell 51:199-209, 1987) can be use for this assay.
2. Choose dishes having 80-90% confluence for the experiment. Trypsinize cells and stop reaction by adding 10% CS DMEM medium. Suspend cells in DMEM medium (10% CS DMEM medium) and centrifuge once at 1000 rpm at room temperature for 5 minutes.
3. Resuspend cells in seeding medium (DMEM, 0.5% bovine serum), and count the cells using trypan blue. Viability above 90% is acceptable. Seed cells in DMEM medium (0.5% bovine serum) at a density of 10,000 cells per well, 100 μL per well, in a 96 well microtiter plate. Incubate seeded cells in 5% CO2 at 37° C. for about 40 hours.
1. Check seeded cells for contamination using an inverted microscope. Dilute drug stock (10 mg/mL in DMSO) 1:10 in DMEM medium, then transfer 5 μL to a test well for a final drug dilution of 1:200 and a final DMSO concentration of 1%. Control wells receive DMSO alone. Incubate in 5% CO2 at 37° C. for one hour.
2. Prepare EGF ligand: dilute stock EGF in DMEM so that upon transfer of 10 μL dilute EGF (1:12 dilution), 25 nM final concentration is attained.
3. Prepare fresh 10 mL HNTG* sufficient for 100 μL per well wherein HNTG* comprises: HNTG stock (2.0 mL), milli-Q H2O (7.3 mL), EDTA, 100 mM, pH 7.0 (0.5 mL), Na3VO4 0.5 M (0.1 mL) and Na4(P2O7), 0.2 M (0.1 mL).
5. After two hours incubation with drug, add prepared EGF ligand to cells, 10 μL per well, to yield a final concentration of 25 nM. Control wells receive DMEM alone. Incubate, shaking, at room temperature, for 5 minutes.
6. Remove drug, EGF, and DMEM. Wash cells twice with PBS. Transfer HNTG* to cells, 100 μL per well. Place on ice for 5 minutes. […]

[2] = molecular target: T2, FLK-1 receptor (Mus musculus, UniProt P35918); assay: FLK-1 ELISA (kinase activity of the FLK-1 receptor in cells engineered to express Flk-1); type: cell-based; conditions: NIH3T3 C7#3 cells (FLK-1 expressing), VEGF stimulated
T2 construct: expressed in transfected cells; host or cells: NIH3T3 C7#3 cells
T2 sequence (P35918 20-1345): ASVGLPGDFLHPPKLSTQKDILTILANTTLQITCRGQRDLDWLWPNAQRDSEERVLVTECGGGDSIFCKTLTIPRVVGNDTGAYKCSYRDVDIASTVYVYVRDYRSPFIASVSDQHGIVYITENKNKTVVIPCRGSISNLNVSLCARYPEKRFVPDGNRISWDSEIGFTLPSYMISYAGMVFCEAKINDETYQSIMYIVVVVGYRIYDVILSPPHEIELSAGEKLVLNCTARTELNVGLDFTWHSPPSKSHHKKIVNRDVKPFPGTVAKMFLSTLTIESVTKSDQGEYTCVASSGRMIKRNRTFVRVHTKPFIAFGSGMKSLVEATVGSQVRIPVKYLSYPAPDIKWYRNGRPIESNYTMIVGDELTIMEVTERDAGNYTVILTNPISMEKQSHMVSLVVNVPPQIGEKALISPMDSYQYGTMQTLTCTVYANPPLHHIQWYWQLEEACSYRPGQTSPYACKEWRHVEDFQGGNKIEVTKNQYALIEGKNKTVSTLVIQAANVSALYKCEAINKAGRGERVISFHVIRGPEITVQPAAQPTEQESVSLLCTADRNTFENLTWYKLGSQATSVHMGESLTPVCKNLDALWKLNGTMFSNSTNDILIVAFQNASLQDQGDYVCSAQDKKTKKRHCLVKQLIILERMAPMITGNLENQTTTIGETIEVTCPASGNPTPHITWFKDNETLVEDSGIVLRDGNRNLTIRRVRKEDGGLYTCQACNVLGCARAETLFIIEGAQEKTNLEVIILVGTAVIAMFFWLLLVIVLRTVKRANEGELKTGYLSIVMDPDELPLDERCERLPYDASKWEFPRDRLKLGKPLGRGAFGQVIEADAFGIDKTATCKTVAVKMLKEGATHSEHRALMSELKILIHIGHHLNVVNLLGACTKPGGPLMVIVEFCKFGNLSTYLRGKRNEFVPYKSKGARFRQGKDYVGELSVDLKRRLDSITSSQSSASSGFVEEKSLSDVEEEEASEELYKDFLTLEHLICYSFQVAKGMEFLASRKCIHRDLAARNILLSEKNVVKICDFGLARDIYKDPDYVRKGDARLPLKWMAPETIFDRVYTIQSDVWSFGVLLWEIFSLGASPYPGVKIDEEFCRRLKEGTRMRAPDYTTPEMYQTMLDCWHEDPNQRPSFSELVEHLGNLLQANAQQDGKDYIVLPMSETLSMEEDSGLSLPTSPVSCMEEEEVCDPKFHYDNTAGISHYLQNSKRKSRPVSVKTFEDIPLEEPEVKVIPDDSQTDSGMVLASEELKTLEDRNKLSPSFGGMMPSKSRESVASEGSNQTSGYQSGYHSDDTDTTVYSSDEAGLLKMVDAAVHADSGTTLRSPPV
Experimental: An ELISA assay is conducted to measure the kinase activity of the FLK-1 receptor and more specifically, the inhibition or activation of TK activity on the FLK-1 receptor. Specifically, the following assay can be conducted to measure kinase activity of the FLK-1 receptor in cells genetically engineered to express Flk-1.
Materials. The following reagents and supplies are used: • a. Corning 96-well ELISA plates (Corning Catalog No. 25805-96); • b. Cappel goat anti-rabbit IgG (catalog no. 55641); • c. PBS (Gibco Catalog No. 450-1300EB); • d. TBSW Buffer (50 mM Tris (pH 7.2), 150 mM NaCl and 0.1% Tween-20); • e. Ethanolamine stock (10% ethanolamine (pH 7.0), stored at 4° C.); • f. HNTG buffer (20 mM HEPES buffer (pH 7.5), 150 mM NaCl, 0.2% Triton X-100, and 10% glycerol); • g. EDTA (0.5 M (pH 7.0) as a 100× stock); • h. Sodium orthovanadate (0.5 M as a 100× stock); • i. Sodium pyrophosphate (0.2 M as a 100× stock); • j. NUNC 96 well V bottom polypropylene plates (Applied Scientific Catalog No. AS-72092); • k. NIH3T3 C7#3 Cells (FLK-1 expressing cells); • l. DMEM with 1× high glucose L-Glutamine (catalog No. 11965-050); • m. FBS, Gibco (catalog no. 16000-028); • n. L-glutamine, Gibco (catalog no. 25030-016); • o. VEGF, PeproTech, Inc. (catalog no. 100-20)(kept as 1 μg/100 μL stock in Milli-Q dH2O and stored at −20° C.; • p. Affinity purified anti-FLK-1 antiserum; • q. UB40 monoclonal antibody specific for phosphotyrosine (see, Fendley, et al., 1990, Cancer Research50:1550-1558); • r. EIA grade Goat anti-mouse IgG-POD (BioRad catalog no. 172-1011); • s. 2,2-azino-bis(3-ethylbenz-thiazoline-6-sulfonic acid (ABTS) solution (100 mM citric acid (anhydrous), 250 mM Na2HPO4 (pH 4.0), 0.5 mg/mL ABTS (Sigma catalog no. A-1888)), solution should be stored in dark at 4° C. until ready for use; • t. H2O2 (30% solution) (Fisher catalog no. H325); • u. ABTS/H2O2 (15mL ABTS solution, 2 μL H2O2) prepared 5 minutes before use and left at room temperature; • v. 0.2 M HCl stock in H2O; • w. dimethylsulfoxide (100%)(Sigma Catalog No. D-8418); and • y. Trypsin-EDTA (Gibco BRL Catalog No. 25200-049).
Protocol. The following protocol can be used for conducting the assay:
1. Coat Corning 96-well ELISA plates with 1.0 μg per well Cappel Anti-rabbit IgG antibody in 0.1 M Na2CO3 pH 9.6. Bring final volume to 150 μL per well. Coat plates overnight at 4° C. Plates can be kept up to two weeks when stored at 4° C.
2. Grow cells in Growth media (DMEM, supplemented with 2.0 mM L-Glutamine, 10% FBS) in suitable culture dishes until confluent at 37° C., 5% CO2.
3. Harvest cells by trypsinization and seed in Corning 25850 polystyrene 96-well round bottom cell plates, 25.000 cells/well in 200 μL of growth media.
4. Grow cells at least one day at 37° C., 5% CO2.
5. Wash cells with D-PBS 1×.
6. […]

T1 sequence (P00533 25-1210): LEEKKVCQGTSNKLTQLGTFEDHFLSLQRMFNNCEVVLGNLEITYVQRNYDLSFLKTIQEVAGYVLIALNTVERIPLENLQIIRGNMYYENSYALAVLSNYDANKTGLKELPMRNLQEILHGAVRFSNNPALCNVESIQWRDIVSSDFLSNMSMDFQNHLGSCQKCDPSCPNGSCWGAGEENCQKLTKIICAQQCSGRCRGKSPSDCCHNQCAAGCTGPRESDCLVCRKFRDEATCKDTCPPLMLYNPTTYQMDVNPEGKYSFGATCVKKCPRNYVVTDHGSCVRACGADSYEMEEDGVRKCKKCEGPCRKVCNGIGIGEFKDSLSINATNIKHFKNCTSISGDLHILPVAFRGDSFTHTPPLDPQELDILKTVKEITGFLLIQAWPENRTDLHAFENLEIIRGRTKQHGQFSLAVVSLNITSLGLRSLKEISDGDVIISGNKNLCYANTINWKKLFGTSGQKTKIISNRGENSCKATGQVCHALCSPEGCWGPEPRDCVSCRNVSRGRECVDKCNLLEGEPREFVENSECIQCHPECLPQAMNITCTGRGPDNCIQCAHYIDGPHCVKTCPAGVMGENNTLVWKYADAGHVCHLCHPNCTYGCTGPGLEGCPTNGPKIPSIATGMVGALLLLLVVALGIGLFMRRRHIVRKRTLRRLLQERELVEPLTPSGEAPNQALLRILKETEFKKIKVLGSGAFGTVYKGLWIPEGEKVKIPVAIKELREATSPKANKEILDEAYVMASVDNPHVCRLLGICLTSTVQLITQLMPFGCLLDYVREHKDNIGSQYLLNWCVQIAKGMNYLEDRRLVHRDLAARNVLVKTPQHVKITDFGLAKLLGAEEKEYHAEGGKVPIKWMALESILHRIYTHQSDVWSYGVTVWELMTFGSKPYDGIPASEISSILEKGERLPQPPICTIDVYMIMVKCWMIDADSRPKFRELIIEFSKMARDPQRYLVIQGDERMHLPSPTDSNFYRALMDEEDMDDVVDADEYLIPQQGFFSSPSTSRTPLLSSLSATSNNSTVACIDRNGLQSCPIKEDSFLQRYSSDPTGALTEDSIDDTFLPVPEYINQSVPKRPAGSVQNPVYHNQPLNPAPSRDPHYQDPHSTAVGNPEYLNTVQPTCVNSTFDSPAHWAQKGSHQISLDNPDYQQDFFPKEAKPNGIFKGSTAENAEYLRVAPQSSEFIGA

Structure (SMILES) | IC50 [1] | IC50 [2]
Cc1cc(C)c(C=C2C(=O)Nc3ncccc32)[nH]1 [3-(3,5-dimethyl-1H-pyrrol-2-ylmethylene)-1,3-dihydro-pyrrolo[2,3-b]pyridin-2-one] | > 100 µM | 2.06 µM
O=C1Nc2ncccc2C1=Cc1cnc[nH]1 [3-(3H-imidazol-4-ylmethylene)-1,3-dihydro-pyrrolo[2,3-b]pyridin-2-one] | > 50 µM | 17.6 µM
Cc1[nH]c(C=C2C(=O)Nc3ncccc32)c(C)c1CCC(=O)O [3-[2,4-dimethyl-5-(2-oxo-1,2-dihydro-pyrrolo[2,3-b]pyridin-3-ylidenemethyl)-1H-pyrrol-3-yl]-propionic acid] | > 50 µM | 0.15 µM
Cc1c(CCC(=O)O)c[nH]c1C=C1C(=O)Nc2ncccc21 [3-[4-methyl-5-(2-oxo-1,2-dihydro-pyrrolo[2,3-b]pyridin-3-ylidenemethyl)-1H-pyrrol-3-yl]-propionic acid] | > 25 µM | 0.96 µM

— patent US6849641B1, “Azaindole tyrosine kinase inhibitors” (Sugen, Inc., priority 1997, dated 2005)
